For experiment [1], the system named is Candida albicans. Nature of the experiment: Antifungal activity against Candida albicans ATCC 10231 assessed as pyruvate level after 24 hrs by [1H] NMR spectroscopic analysis. In kind it is functional.
For experiment [2], the system named is Candida albicans. Nature of the experiment: Antifungal activity against Candida albicans ATCC 10231 assessed as ethanol level after 18 hrs by [1H] NMR spectroscopic analysis. In kind it is functional.
Experiment [3] relates to Lipid bilayer. Put plainly: Binding affinity to DPPC liposomes assessed as change in pre-transition temperature at 1:10 drug to DPPC liposome molar ratio by differential scanning calorimetric analysis.
Experiment [4] has as its system Candida albicans. Put plainly: Antifungal activity against Candida albicans ATCC 10231 assessed as pyruvate level after 32 hrs by [1H] NMR spectroscopic analysis. In kind it is functional.
Experiment [5] concerns Lipid bilayer. Nature of the experiment: Binding affinity to DPPC liposomes assessed as change in pre-transition temperature at 1:5 drug to DPPC liposome molar ratio by differential scanning calorimetric analysis. A general note: DSC measures the heat that a sample takes up or gives off during a temperature scan.
Experiment [6] has as its system Lipid bilayer. Put plainly: Binding affinity to DPPC liposomes by 2D-NOESY spectroscopic analysis.
In experiment [7] the test system is Lipid bilayer. Nature of the experiment: Binding affinity to DPPC liposomes assessed as melting temperature at 1:2 drug to DPPC liposome molar ratio by differential scanning calorimetric analysis.
The subject of experiment [8] is Lipid bilayer. Nature of the experiment: Binding affinity to DPPC liposomes at 1:5 drug to DPPC liposome molar ratio by [13C] NMR spectroscopic analysis.
Experiment [9] concerns Candida albicans. Put plainly: Antifungal activity against Candida albicans ATCC 10231 assessed as ethanol level after 32 hrs by [1H] NMR spectroscopic analysis. In kind it is functional.
Experiment [10] has as its system Candida albicans. Put plainly: Antifungal activity against Candida albicans ATCC 10231 assessed as acetate level after 18 hrs by [1H] NMR spectroscopic analysis. Format: functional.
For experiment [11], the system named is Lipid bilayer. Nature of the experiment: Binding affinity to DPPC liposomes assessed as change in pre-transition temperature at 1:2 drug to DPPC liposome molar ratio by differential scanning calorimetric analysis.
Experiment [12] has as its system Lipid bilayer. Put plainly: Binding affinity to DPPC liposomes assessed as melting temperature at 1:10 drug to DPPC liposome molar ratio by differential scanning calorimetric analysis.
In experiment [13] the test system is Lipid bilayer. Put plainly: Binding affinity to DPPC liposomes at 1:5 drug to DPPC liposome molar ratio by [1H] NMR spectroscopic analysis.
Experiment [14] has as its system Candida albicans. Put plainly: Antifungal activity against Candida albicans ATCC 10231 assessed as ethanol level after 24 hrs by [1H] NMR spectroscopic analysis. Format: functional.
Experiment [15] deals with Lipid bilayer. Nature of the experiment: Binding affinity to DPPC liposomes assessed as melting temperature at 1:5 drug to DPPC liposome molar ratio by differential scanning calorimetric analysis.
In experiment [16] the test system is Lipid bilayer. Nature of the experiment: Binding affinity to DPPC liposomes at 1:2 to 1:10 drug to DPPC liposome molar ratio by [31P] NMR spectroscopic analysis.
The subject of experiment [17] is Candida albicans. Nature of the experiment: Antifungal activity against Candida albicans ATCC 10231 after 48 hrs by tube dilution method. Format: functional. To be noted: ATCC 10231, 48 h.
Experiment [18] has as its system Candida albicans. Nature of the experiment: Antifungal activity against Candida albicans ATCC 10231 assessed as acetate level after 32 hrs by [1H] NMR spectroscopic analysis. Format: functional.
Experiment [19] has as its system Candida albicans. Put plainly: Antifungal activity against Candida albicans ATCC 10231 after 24 hrs by broth microdilution method. In kind it is functional. To be noted: ATCC 10231, 24 h. Background: Dilution methods test growth across graded concentrations, often in twofold steps.
Experiment [20] concerns Candida albicans. Put plainly: Antifungal activity against Candida albicans ATCC 10231 assessed as acetate level after 24 hrs by [1H] NMR spectroscopic analysis. In kind it is functional.
Experiment [21] relates to Lipid bilayer. Put plainly: Binding affinity to DPPC liposomes after 2 hrs by double reciprocal plot analysis.
Experiment [22] relates to Candida albicans. Put plainly: Antifungal activity against Candida albicans ATCC 10231 assessed as pyruvate level after 18 hrs by [1H] NMR spectroscopic analysis. Format: functional.
For experiment [23], the system named is Lipid bilayer. Nature of the experiment: Binding affinity to DPPC liposomes after 2 hrs by spectrophotometric analysis relative to control.

Molecules are shown by their SMILES. Converted amounts (≈) assume the structure as drawn. The source made the active and inactive calls. No cut-off for these calls is given here.

In the case of `C[C@@H](c1ncncc1F)[C@@](Cn1cncn1)(OC(=O)c1ccccc1)c1ccc(F)cc1F` [VORICONAZOLE BENZOATE], the Activity in the experiment on Candida albicans [1] turned out to be 3 µg/mL; in the experiment with Candida albicans [2] it was 5 µg/mL; in the experiment with Candida albicans [4], 3 µg/mL; in the experiment with Candida albicans [9], 4 µg/mL; in the experiment with Candida albicans [10], 6 µg/mL; in the experiment on Candida albicans [14], 4 µg/mL. Besides, the Activity in the experiment with Candida albicans [18], in the experiment on Candida albicans [20] and in the experiment on Candida albicans [22] was 4 µg/mL throughout. For the same molecule, the T with Lipid bilayer [3] was determined as 30.1 °C. Also, the result in the experiment on Lipid bilayer [5], with Lipid bilayer [6], in the experiment on Lipid bilayer [8], in the experiment on Lipid bilayer [11], with Lipid bilayer [13] and in the experiment with Lipid bilayer [16] was Active. The values for the Tm in the experiment on Lipid bilayer [7], in the experiment on Lipid bilayer [12] and with Lipid bilayer [15] were 39.5 °C, 40.9 °C and 39.5 °C, respectively. In addition, the MIC against Candida albicans [17] and in the experiment with Candida albicans [19] was 4 µg/mL (≈ 8.82 µM) in each case. Also, the Kapp with Lipid bilayer [21] is 1.22 M⁻¹.
`COc1ccc(C(=O)O[C@@](Cn2cncn2)(c2ccc(F)cc2F)[C@@H](C)c2ncncc2F)cc1` [VORICONAZOLE P-METHOXY BENZOATE]: the Activity was found to be 1 µg/mL with Candida albicans [1]; 3 µg/mL in the experiment on Candida albicans [2]; 1 µg/mL in the experiment with Candida albicans [4]; 2 µg/mL in the experiment on Candida albicans [9]; 4 µg/mL in the experiment with Candida albicans [10]; 3 µg/mL with Candida albicans [14]. Besides, the Activity with Lipid bilayer [23] amounted to 50%; in the experiment with Candida albicans [18], 2 µg/mL; in the experiment with Candida albicans [20] it was 3 µg/mL; in the experiment on Candida albicans [22], 2 µg/mL. The result in the experiment with Lipid bilayer [3], in the experiment on Lipid bilayer [5], in the experiment on Lipid bilayer [6], in the experiment on Lipid bilayer [8], with Lipid bilayer [11] and in the experiment on Lipid bilayer [13] was Active. In addition, the outcome in the experiment with Lipid bilayer [16] was Active. For the same molecule, the Tm with Lipid bilayer [7] turned out to be 38.3 °C; in the experiment on Lipid bilayer [12] it was 39.2 °C; in the experiment on Lipid bilayer [15], 39.1 °C. The minimum inhibitory concentration (MIC) in the experiment with Candida albicans [17] and in the experiment on Candida albicans [19] was 3 µg/mL (≈ 6.21 µM) throughout. In addition, the Kapp in the experiment with Lipid bilayer [21] amounted to 1.16 M⁻¹.
`C[C@@H](c1ncncc1F)[C@@](Cn1cncn1)(OC(=O)c1ccc([N+](=O)[O-])cc1)c1ccc(F)cc1F` [VORICONAZOLE P-NITRO BENZOATE]: the Activity in the experiment with Candida albicans [1] was 5 µg/mL; in the experiment with Candida albicans [2], 8 µg/mL; with Candida albicans [4], 5 µg/mL; in the experiment with Candida albicans [9], 7 µg/mL; with Candida albicans [10] it was 8 µg/mL; in the experiment on Candida albicans [14] it was 7 µg/mL. For the same molecule, the Activity came out at 6 µg/mL with Candida albicans [18], 7 µg/mL with Candida albicans [20] and 5 µg/mL in the experiment with Candida albicans [22]. The outcome in the experiment with Lipid bilayer [3], with Lipid bilayer [5], in the experiment on Lipid bilayer [6], in the experiment on Lipid bilayer [8], in the experiment with Lipid bilayer [11] and in the experiment with Lipid bilayer [13] was Active. Moreover, in the experiment with Lipid bilayer [16], the result was Active. In addition, the Tm worked out at 59.6 °C with Lipid bilayer [7], 60 °C with Lipid bilayer [12] and 60 °C in the experiment with Lipid bilayer [15]. Also, the minimum inhibitory concentration (MIC) (in general, the lowest concentration that inhibits growth of the organism) stood at 8 µg/mL (≈ 16.1 µM) in the experiment with Candida albicans [17] and 7 µg/mL (≈ 14 µM) with Candida albicans [19]. In the experiment on Lipid bilayer [21], this molecule registered a Kapp of 0.505 M⁻¹.
Consider `Cc1ccc(C(=O)O[C@@](Cn2cncn2)(c2ccc(F)cc2F)[C@@H](C)c2ncncc2F)cc1` [VORICONAZOLE TOLUATE], for which the Activity is 3 µg/mL in the experiment on Candida albicans [1]; 5 µg/mL in the experiment on Candida albicans [2]; 3 µg/mL in the experiment with Candida albicans [4]; 4 µg/mL in the experiment with Candida albicans [9]; 6 µg/mL in the experiment with Candida albicans [10]; 5 µg/mL in the experiment on Candida albicans [14]. The results for the Activity in the experiment with Candida albicans [18], in the experiment on Candida albicans [20] and in the experiment on Candida albicans [22] were 5 µg/mL, 6 µg/mL and 4 µg/mL, respectively. Further, the outcome in the experiment with Lipid bilayer [3], in the experiment on Lipid bilayer [5], in the experiment on Lipid bilayer [6], in the experiment on Lipid bilayer [8], with Lipid bilayer [11] and with Lipid bilayer [13] was Active. Also, the outcome in the experiment with Lipid bilayer [16] was Active. The Tm in the experiment with Lipid bilayer [7] is 32.4 °C; in the experiment with Lipid bilayer [12], 34 °C; in the experiment on Lipid bilayer [15], 32.6 °C. Besides, the MIC against Candida albicans [17] and against Candida albicans [19] was 5 µg/mL (≈ 10.7 µM) throughout. Besides, in the experiment with Lipid bilayer [21], the Kapp is 0.871 M⁻¹.
On to `C[C@@H](c1ncncc1F)[C@](O)(Cn1cncn1)c1ccc(F)cc1F` [VORICONAZOLE], for which the Activity in the experiment with Candida albicans [1] amounted to 1 µg/mL; with Candida albicans [2], 2 µg/mL; in the experiment with Candida albicans [4] it was 1 µg/mL; in the experiment on Candida albicans [9], 1 µg/mL; with Candida albicans [10] it was 3 µg/mL; in the experiment with Candida albicans [14], 1 µg/mL. The values for the Activity with Candida albicans [18], with Candida albicans [20] and in the experiment on Candida albicans [22] were 2 µg/mL, 2 µg/mL and 1 µg/mL, respectively. Moreover, the result in the experiment on Lipid bilayer [3], in the experiment with Lipid bilayer [5], with Lipid bilayer [6], in the experiment on Lipid bilayer [8], in the experiment on Lipid bilayer [11] and with Lipid bilayer [13] was Active. Besides, the values for the Tm with Lipid bilayer [7], in the experiment on Lipid bilayer [12] and in the experiment with Lipid bilayer [15] were 37.4 °C, 38.5 °C and 38.5 °C, respectively. In addition, in the experiment on Lipid bilayer [16], the result was inactive. The minimal inhibitory concentration (MIC) against Candida albicans [17] and against Candida albicans [19] was 1 µg/mL (≈ 2.86 µM) throughout. For the same molecule, the Kapp in the experiment with Lipid bilayer [21] was 0.0543 M⁻¹.

Values taken from ChEMBL document CHEMBL2439947, “Intermolecular interaction of voriconazole analogues with model membrane by DSC and NMR, and their antifungal activity using NMR based metabolic profiling” (2013).
